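Grown in 96-well plates, cells were treated for 48 hours with each compound at five concentrations. Insufficient inhibition: endpoint recorded as highest concentration tested. The concentration for 50% growth inhibition is given as GI50. At the TGI there is no net growth.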
Tests used:
Assay in all cases: NCI tumour cell line growth inhibition, 48 h
UACC-257 melanoma = test system: UACC-257 melanoma
OVCAR-5 ovarian = test system: OVCAR-5 ovarian
LOX IMVI melanoma = test system: LOX IMVI melanoma
OVCAR-4 ovarian = test system: OVCAR-4 ovarian
NCI-H226 lung = test system: NCI-H226 lung
HCT-116 colon = test system: HCT-116 colon
CAKI-1 renal = test system: CAKI-1 renal
SF-268 CNS = test system: SF-268 CNS
HOP-92 NSCLC = test system: HOP-92 NSCLC
786-0 renal = test system: 786-0 renal

Compound	GI50 (UACC-257 melanoma)	TGI (UACC-257 melanoma)	GI50 (OVCAR-5 ovarian)	TGI (OVCAR-5 ovarian)	GI50 (LOX IMVI melanoma)	TGI (LOX IMVI melanoma)	GI50 (OVCAR-4 ovarian)	TGI (OVCAR-4 ovarian)	GI50 (NCI-H226 lung)	TGI (NCI-H226 lung)	GI50 (HCT-116 colon)	TGI (HCT-116 colon)	GI50 (CAKI-1 renal)	TGI (CAKI-1 renal)	GI50 (SF-268 CNS)	TGI (SF-268 CNS)	GI50 (HOP-92 NSCLC)	TGI (HOP-92 NSCLC)	GI50 (786-0 renal)	TGI (786-0 renal)
FC(F)(F)c1cc(-c2nnc3n2N=C(N2CCCC2)CS3)cc(C(F)(F)F)c1	> 50 µM	> 50 µM	> 50 µM	> 50 µM	> 50 µM	> 50 µM	> 50 µM	> 50 µM	24.6 µM	> 50 µM	7.99 µM	> 50 µM	> 50 µM	> 50 µM	> 50 µM	> 50 µM	25.9 µM	> 50 µM	20.3 µM	> 50 µM
C=C(CCCCCCCCC)CC(=O)SCCNC(=O)CCNC(=O)C(O)C(C)(C)COP(=O)(O)OP(=O)(O)OCC1OC(n2cnc3c(N)ncnc32)C(O)C1OP(=O)(O)O (configuration not stated)		> 100 µM		> 100 µM		75.7 µM		> 100 µM		> 100 µM		> 100 µM		> 100 µM		15.3 µM		> 100 µM		> 100 µM
CCCc1c(CC)c(=N)c2ccccc2n1C	47.3 µM	> 100 µM	> 100 µM	> 100 µM	> 100 µM	> 100 µM	20.1 µM	> 100 µM	93.6 µM	> 100 µM	> 100 µM	> 100 µM	> 100 µM	> 100 µM	> 100 µM	> 100 µM	30.5 µM	> 100 µM	> 100 µM	> 100 µM
Cc1c(S(C)(=O)=O)c(-c2cc(F)cc(N3CCN(c4ccc(NS(=O)(=O)c5ccc(N[C@H](CCN6CCC(C(=O)OCCCP(=O)(O)O)CC6)CSc6ccccc6)c(S(=O)(=O)C(F)(F)F)c5)cc4)CC3)c2)c(-c2ccc(Cl)cc2)n1C(C)C	> 100 µM	> 100 µM	> 100 µM	> 100 µM	> 100 µM	> 100 µM	> 100 µM	> 100 µM	> 100 µM	> 100 µM	> 100 µM	> 100 µM	> 100 µM	> 100 µM	> 100 µM	> 100 µM	0.0794 µM	0.952 µM	> 100 µM	> 100 µM
C=CC1[C@H]2COC(C)(C)O[C@@H]2CC(=O)C1(C)C (some centres not stated)		> 100 µM		> 100 µM		> 100 µM		> 100 µM		> 100 µM		> 100 µM		> 100 µM		> 100 µM		> 100 µM		> 100 µM
C/C(=N\O)c1cccc(Nc2cc(-n3ccnn3)c3ccccc3n2)c1	12.9 µM	27.9 µM	24.4 µM	> 100 µM	15.4 µM	30.4 µM	0.25 µM	27.8 µM	0.388 µM	9.35 µM	14.1 µM	27.1 µM	21.3 µM	70.6 µM	> 100 µM	> 100 µM	13.9 µM	38.2 µM	18.3 µM	51.5 µM
COc1ccc(-c2cc(=O)c3c(C)cc(C)nc3[nH]2)cc1		85.3 µM		> 100 µM		> 100 µM		> 100 µM		> 100 µM	36.5 µM	> 100 µM		82.9 µM		> 100 µM		> 100 µM	58.8 µM	> 100 µM
CSC(CC(=O)O)C(=O)O (configuration not stated)		> 100 µM		> 100 µM		> 100 µM		> 100 µM		> 100 µM		> 100 µM		> 100 µM		> 100 µM		> 100 µM		> 100 µM
C=CCN(/C=C1/C(=O)O[C@H](COC)[C@@]2(C)C1=C(O)C(=O)C1=C2[C@H](OC(C)=O)C[C@]2(C)C(=O)CC[C@@H]12)CC=C	0.72 µM	> 9.25 µM	1.08 µM	> 10 µM	1.65 µM	> 10 µM	2.72 µM	> 10 µM	2.57 µM	> 10 µM	1.17 µM	> 10 µM	0.357 µM	> 10 µM	1.71 µM	> 10 µM	0.0783 µM	1.57 µM	0.379 µM	> 10 µM
COc1ccc(C2SCC(=O)N2NC(=O)C(O)c2ccccc2)cc1OC (configuration not stated)	> 100 µM	> 100 µM	> 100 µM	> 100 µM	> 100 µM	> 100 µM	> 100 µM	> 100 µM	> 100 µM	> 100 µM	> 100 µM	> 100 µM	> 100 µM	> 100 µM	> 100 µM	> 100 µM	> 100 µM	> 100 µM	> 100 µM	> 100 µM
CC1CC2CC(=O)CC3(C1)C2CCCN3CCCO (configuration not stated)		> 100 µM		> 100 µM		> 100 µM		> 100 µM		> 100 µM		> 100 µM		> 100 µM		> 100 µM		> 100 µM		> 100 µM
CCn1c(C(=O)N(C2CC2)C2CC2)cc2c3c(ncn3C)c(Nc3cc(C)n(C)n3)nc21	> 100 µM	> 100 µM	> 100 µM	> 100 µM	59.2 µM	> 100 µM	> 100 µM	> 100 µM	> 100 µM	> 100 µM	> 100 µM	> 100 µM	16.8 µM	> 100 µM	> 100 µM	> 100 µM	> 100 µM	> 100 µM	> 100 µM	> 100 µM
Cc1ccc(S(=O)(=O)NCCNC2=CC(=O)c3nc4ccccc4c4ccnc2c34)cc1	19.5 µM	54.3 µM	25 µM	65.4 µM	16.6 µM	42.4 µM	26.8 µM	> 100 µM	22.2 µM	54.4 µM	26.9 µM	> 100 µM	20.5 µM	48.3 µM	19.1 µM	52.3 µM	20.3 µM	55.7 µM	20.6 µM	50.2 µM
COC(=O)C1C(O)CC(c2ccccn2)N(Cc2ccccc2)C1c1ccccn1 (configuration not stated)		> 100 µM		> 100 µM		> 100 µM		> 100 µM		> 100 µM		> 100 µM		> 100 µM		> 100 µM		> 100 µM		> 100 µM
C[C@H](NC(=O)[C@@H]1CSSC[C@@H](NC(=O)c2nc3ccccc3cc2O)C(=O)NCC(=O)N1C)c1ccccc1	7.63 µM	24.6 µM	4.35 µM	12.1 µM	0.649 µM	1.52 µM	7.95 µM	18.3 µM	8.87 µM	17.4 µM	1.63 µM	5.15 µM	7.24 µM	18.5 µM	0.43 µM	11 µM	9.69 µM	18.6 µM	2.45 µM	9.78 µM
COc1ccc(-c2nc3sc(-c4ccc(Cl)cc4)cn3n2)cc1	> 50 µM	> 50 µM	2.78 µM	> 50 µM	> 50 µM	> 50 µM	0.766 µM	1.63 µM	11.1 µM	> 50 µM	1.21 µM	3.48 µM	1.79 µM	8.92 µM	48 µM	> 50 µM	0.915 µM	7.61 µM	1.06 µM	2.41 µM
CN1CCN(c2ccc(NC(=O)c3nc4ccc5[nH]ncc5c4c4c3CCCC4)cc2C(F)(F)F)CC1	0.902 µM	1.88 µM	1.5 µM	8.39 µM	0.836 µM	1.55 µM	1.45 µM	6.81 µM	4.36 µM	17.7 µM	0.814 µM	1.5 µM	1.52 µM	7.72 µM	3.89 µM	19.3 µM	0.658 µM	1.34 µM	0.841 µM	1.52 µM
Cc1ccc(/C(=N\N=C(N)N)c2ccccc2)cc1	11.7 µM	28.2 µM	0.83 µM	18.3 µM	0.611 µM	12.5 µM	0.791 µM	18.6 µM	0.726 µM	10.1 µM	0.342 µM	11.3 µM	0.843 µM	20.1 µM	0.868 µM	17.3 µM	1.68 µM	20.2 µM	0.594 µM	12.1 µM
O=C(Nc1ccc(F)cc1)c1ccc(NC2=C(Cl)C(=O)N(Cc3ccccc3)C2=O)cc1	19.8 µM	56 µM	9.15 µM	27.1 µM	11.3 µM	25.2 µM	16.5 µM	39.6 µM	13.5 µM	33.3 µM	2.23 µM	4.82 µM	1.78 µM	3.36 µM	4.4 µM	23.6 µM	5.23 µM	19.1 µM	10.5 µM	22.9 µM
